In patent US20170073337A1, “DIHYDROTHIAZINE AND DIHYDROOXAZINE DERIVATIVES HAVING BACE1 INHIBITORY ACTIVITY” (Shionogi & Co., Ltd., priority 2014, published 2017):
pIC50: −log10 of the molar value.

How the values were obtained:
[1] = target: T1, CYP2D6 (Homo sapiens, UniProt P10635); assay: CYP inhibition test (CYP2D6); assay type: in vitro ADME; conditions: pooled human liver microsomes; dextromethorphan O-demethylation
T1 construct: The commercially available pooled human liver microsomes are used as an enzyme resource; from tissue; host or cells: pooled human liver microsomes
T1 sequence (P10635 whole entry): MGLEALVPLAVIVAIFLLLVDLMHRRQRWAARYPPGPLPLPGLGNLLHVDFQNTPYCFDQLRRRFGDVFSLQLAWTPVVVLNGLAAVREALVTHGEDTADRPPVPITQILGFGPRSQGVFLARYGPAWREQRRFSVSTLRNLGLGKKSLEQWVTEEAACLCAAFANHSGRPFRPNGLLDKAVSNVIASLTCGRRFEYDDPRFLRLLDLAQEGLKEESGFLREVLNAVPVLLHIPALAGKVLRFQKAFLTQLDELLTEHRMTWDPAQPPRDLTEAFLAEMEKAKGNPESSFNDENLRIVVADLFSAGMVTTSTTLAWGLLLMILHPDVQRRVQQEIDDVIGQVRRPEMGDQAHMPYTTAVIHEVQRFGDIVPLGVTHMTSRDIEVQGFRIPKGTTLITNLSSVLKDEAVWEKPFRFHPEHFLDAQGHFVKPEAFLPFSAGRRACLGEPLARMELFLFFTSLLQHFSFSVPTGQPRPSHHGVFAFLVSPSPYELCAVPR
Outline: (§1)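 Pooled human liver microsomes (0.2 mg protein/mL) with compound at 1, 5, 10 and 20 μmol/L and NADPH, at 37 °C. Marker substrates: dextromethorphan 5 μmol/L (2D6), terfenadine 1 μmol/L (3A4), S-mephenytoin 50 μmol/L (2C19), tolbutamide 100 μmol/L (2C9). Metabolites were measured by LC/MS/MS, and IC50 was derived by logistic fit of remaining activity against the DMSO control.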

[2] = target: T2, Recombinant human BACE1 (Homo sapiens, UniProt P56817); assay: Assay of BACE1 inhibitory activity: 96-well; assay type: biochemical; conditions: Assay format 96-well
T2 construct: purchased R&D Systems
T2 sequence (P56817 46-501): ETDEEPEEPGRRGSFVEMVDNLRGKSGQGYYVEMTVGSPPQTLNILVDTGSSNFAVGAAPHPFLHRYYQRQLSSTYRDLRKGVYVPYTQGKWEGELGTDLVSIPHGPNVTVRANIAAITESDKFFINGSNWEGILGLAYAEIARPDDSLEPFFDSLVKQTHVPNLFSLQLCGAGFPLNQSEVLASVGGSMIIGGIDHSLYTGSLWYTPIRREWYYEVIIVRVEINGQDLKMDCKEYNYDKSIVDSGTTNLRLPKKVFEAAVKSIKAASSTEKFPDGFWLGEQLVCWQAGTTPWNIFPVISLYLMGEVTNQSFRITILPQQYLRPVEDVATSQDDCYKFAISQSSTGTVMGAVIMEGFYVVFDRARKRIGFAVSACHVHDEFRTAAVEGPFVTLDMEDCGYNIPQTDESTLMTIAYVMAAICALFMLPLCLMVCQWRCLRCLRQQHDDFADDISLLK
Experimental: 48.5 μL of substrate peptide solution (Biotin-XSEVNLDAEFRHDSGC-Eu: X=ε-amino-n-capronic acid. Eu=Europium cryplate) was added to each well of 96-hole half-area plate (a black plate: Costar), and after addition of 0.5 μl of the compound of the present invention (DMSO solution) and 1 μl of Recombinant human BACE1(R&D Systems), the reaction mixture was incubated at 30° C. for 3.5 hours. The substrate peptide was synthesized by reacting Cryptate TBPCOOH mono SMP (CIS bio international) with Biotin-XSEVNLDAEFRHDSGC (Peptide Institute, Inc.).
After the incubation for reaction, 50 μl of 8.0 μg/ml Streptavidin-XL665 (CIS bio international) dissolved in phosphate buffer (150 mmol/L […]—KH2PO4, pH 7.0, 0.008% Triton X-100, 0.8 mol/L KF) was added to each well and left stand at 30° C. for 45 minutes.

[3] = tested on: Aβ production in neuroblastoma SH-SY5Y cells (SH/APPwt); assay: β-amyloid (Aβ) production inhibitory effect in cell: 96-well; assay type: cell-based; conditions: Homo sapiens, Assay format 96-well
Experimental: Neuroblastoma SH-SY5V cells (SH/APPwt) with human wild-type R-APP excessively expressed therein were prepared at 8×10^5 cells/mL, and 150 μl portions thereof were inoculated into each well of a 96-well culture plate (Falcon). The cells were cultured for 2 hours at […]. in a 5% gaseous carbon dioxide incubator. […] Namely, the final DMSO concentration was 1%, and the amount of the cell culture was 200 μl. After the incubation was performed for 24 hours from the addition of the test compound, 100 μl of the culture supernatant was collected from each fraction. The amount of the Aβ in each fraction was measured. The Aβ amount was measured as follows. 10 μl of a homogeneous time resolved fluorescence (HTRF) measurement reagent (Amyloid β1-40 peptide: CIS bio international) and 10 μof the culture supernatant were put into a 384-well half area microplate (black microplate, Costar) and mixed with each other, and then left standing overnight at 4° C. while the light was shielded.

[4] = target: T3, CYP2C9 (Homo sapiens, UniProt P11712); assay: CYP inhibition test (CYP2C9); assay type: in vitro ADME; conditions: pooled human liver microsomes; tolbutamide methyl-hydroxylation
T3 construct: The commercially available pooled human liver microsomes are used as an enzyme resource; from tissue; host or cells: pooled human liver microsomes
T3 sequence (P11712 whole entry): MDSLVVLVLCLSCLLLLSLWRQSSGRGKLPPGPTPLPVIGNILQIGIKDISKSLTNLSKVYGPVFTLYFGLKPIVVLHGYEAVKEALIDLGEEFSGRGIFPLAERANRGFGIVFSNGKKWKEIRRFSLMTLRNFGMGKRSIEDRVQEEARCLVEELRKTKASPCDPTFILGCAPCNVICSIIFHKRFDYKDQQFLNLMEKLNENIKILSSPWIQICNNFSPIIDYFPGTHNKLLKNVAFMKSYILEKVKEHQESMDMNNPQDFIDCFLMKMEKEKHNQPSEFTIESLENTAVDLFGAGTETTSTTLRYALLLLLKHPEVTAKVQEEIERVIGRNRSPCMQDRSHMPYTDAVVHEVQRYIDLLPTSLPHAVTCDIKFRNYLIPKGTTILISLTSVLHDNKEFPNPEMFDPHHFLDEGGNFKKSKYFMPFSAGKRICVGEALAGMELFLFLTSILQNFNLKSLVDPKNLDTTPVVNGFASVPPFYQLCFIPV
Outline: as §1

[5] = target: T4, P-gp (MDR1 expressing LLC-PK1 cells) (Homo sapiens, UniProt P08183); assay: P-gp substrate test; assay type: in vitro ADME; conditions: net flux = Efflux Ratio in MDR1 expressing cells / Efflux Ratio in parent LLC-PK1 cells
T4 construct: host or cells: LLC-PK1
T4 sequence (P08183 whole entry): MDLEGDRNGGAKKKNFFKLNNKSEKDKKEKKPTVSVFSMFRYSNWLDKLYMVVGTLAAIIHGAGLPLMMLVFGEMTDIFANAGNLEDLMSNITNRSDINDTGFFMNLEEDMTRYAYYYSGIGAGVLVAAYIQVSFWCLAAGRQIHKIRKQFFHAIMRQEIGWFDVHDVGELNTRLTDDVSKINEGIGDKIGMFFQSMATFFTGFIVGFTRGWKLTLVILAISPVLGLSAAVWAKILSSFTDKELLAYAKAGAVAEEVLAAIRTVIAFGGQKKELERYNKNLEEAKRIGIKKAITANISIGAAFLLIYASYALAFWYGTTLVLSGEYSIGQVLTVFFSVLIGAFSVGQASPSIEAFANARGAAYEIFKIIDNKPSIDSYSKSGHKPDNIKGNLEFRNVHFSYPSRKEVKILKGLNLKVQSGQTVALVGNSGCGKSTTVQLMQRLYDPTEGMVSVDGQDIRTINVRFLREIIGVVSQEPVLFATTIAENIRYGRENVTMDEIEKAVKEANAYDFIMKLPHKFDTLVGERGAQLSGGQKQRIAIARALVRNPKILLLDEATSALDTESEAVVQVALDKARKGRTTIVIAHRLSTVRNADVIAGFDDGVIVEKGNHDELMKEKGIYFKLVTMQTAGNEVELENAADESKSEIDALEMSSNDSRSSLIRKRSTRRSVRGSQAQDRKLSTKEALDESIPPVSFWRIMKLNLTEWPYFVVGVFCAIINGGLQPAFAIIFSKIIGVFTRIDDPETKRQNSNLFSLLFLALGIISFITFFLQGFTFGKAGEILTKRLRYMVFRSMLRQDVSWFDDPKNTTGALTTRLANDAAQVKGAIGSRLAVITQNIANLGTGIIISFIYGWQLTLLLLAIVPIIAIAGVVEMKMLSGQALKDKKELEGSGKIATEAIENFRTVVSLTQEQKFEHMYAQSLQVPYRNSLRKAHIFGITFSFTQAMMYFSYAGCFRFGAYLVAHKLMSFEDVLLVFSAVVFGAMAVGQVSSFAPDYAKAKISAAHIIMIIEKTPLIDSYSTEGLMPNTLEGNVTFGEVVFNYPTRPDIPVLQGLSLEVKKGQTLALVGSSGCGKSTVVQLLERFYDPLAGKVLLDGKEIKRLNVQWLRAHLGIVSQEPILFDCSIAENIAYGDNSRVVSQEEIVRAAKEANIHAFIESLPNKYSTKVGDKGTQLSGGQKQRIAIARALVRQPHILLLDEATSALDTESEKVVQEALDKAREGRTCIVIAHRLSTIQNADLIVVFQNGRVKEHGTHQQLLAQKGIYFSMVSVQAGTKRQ
Experimental: • 1. Cell line: • a. MDR/LLC-PK1 (Becton Dickinson) • b. LLC-PK1 (Becton Dickinson) • 2. Reference substrates: • a Digoxin (2 μM)
1. […] After incubation for designed time at 37° C., an aliquot (50 μL) of transport buffer in the donor and receiver side were collected. Assay was performed by duplicate or triplicate. 3. Reference substrate and the present invention in the aliquot was quantified by LC/MS/MS.
Pc(cm/sec)−Permeated amount (pmol)/area of cell membrane (cm2)/initial concentration (nM)/incubation time (sec)
The efflux ratio was calculated using the following equation:
Efflux Ratio=Basolateral-to-Apical Pe/Apical-to-Basolateral Pe
The net flux was calculated using the following equation
Net flux=Efflux Ratio in MDK1 expressing cells/Efflux Ratio in parent cells

Row | SMILES | pIC50 [1] | pIC50 [2] | pIC50 [3] | pIC50 [4] | ER ratio (Cell: MDR1/LLC-PK1) [5]
1 | C[C@]1(c2cc(NC(=O)c3ccc(F)cn3)ccc2F)N=C(N)O[C@H](CF)[C@@H]1OCC(F)(F)F [Compound I-11] | ≤ 5.00 | 6.99 | 8.38 | ≤ 5.00 | –
2 | COc1cnc(C(=O)Nc2ccc(F)c([C@@]3(C)N=C(N)S[C@H](C)[C@@H]3F)c2)cn1 [Compound I-8] | – | 7.93 | 9.59 | – | 1.3
3 | CO[C@H]1[C@@H](CF)OC(N)=N[C@]1(C)c1cc(NC(=O)c2cnc(OCF)cn2)ccc1F [Compound I-24] | ≤ 5.00 | 7.01 | 8.64 | ≤ 4.70 | –
4 | CO[C@H]1[C@@H](CF)OC(N)=N[C@]1(C)c1cc(NC(=O)c2ccc(F)cn2)ccc1Cl [Compound I-20] | ≤ 4.70 | 7.14 | 8.38 | ≤ 4.70 | –
5 | CO[C@H]1[C@@H](CF)OC(N)=N[C@]1(C)c1cc(NC(=O)c2ccc(F)cn2)ccc1F [Compound I-25] | ≤ 4.70 | 6.81 | 8.37 | ≤ 4.70 | –
6 | C[C@]1(c2nc(NC(=O)c3ccc(C#N)cn3)ccc2F)N=C(N)S[C@H](CF)[C@@H]1F [Compound I-4] | ≤ 4.70 | 7.94 | 9.16 | ≤ 5.00 | –
7 | C[C@H]1[C@H](C(F)(F)F)OC(N)=N[C@]1(C)c1cc(NC(=O)c2ccc(C#N)cn2)ccc1F [Compound I-29] | ≤ 4.70 | 5.81 | 7.03 | ≤ 4.70 | –
8 | C[C@@H](F)[C@H]1OC(N)=N[C@](C)(c2cc(NC(=O)c3ccc(C#N)cn3)ccc2F)[C@H]1F [Compound I-15] | ≤ 4.70 | 7.82 | 9.19 | ≤ 4.70 | 2.7
9 | C[C@H]1[C@@H](C(F)(F)F)OC(N)=N[C@]1(C)c1cc(NC(=O)c2ccc(C#N)cn2)ccc1F [Compound I-28] | ≤ 4.70 | 7.65 | 8.82 | ≤ 4.70 | 1.2
10 | C[C@]1(c2cc(NC(=O)c3ccc(F)cn3)ccc2F)N=C(N)OCC12CC(F)(F)C2 [Compound I-45] | ≤ 4.70 | 6.87 | 8.24 | ≤ 4.70 | –
11 | C[C@H]1[C@@H](C(F)(F)F)OC(N)=N[C@]1(C)c1cc(NC(=O)c2cnc(OCF)cn2)ccc1F [Compound I-30] | – | 7.28 | 8.63 | ≤ 4.70 | –
12 | C[C@]1(c2cc(NC(=O)c3ccc(C#N)cn3)ccc2F)N=C(N)O[C@H](CF)[C@@H]1OCC(F)(F)F [Compound I-10] | ≤ 4.70 | 7.59 | 9.15 | ≤ 4.70 | 4
13 | CO[C@H]1[C@@H](CF)OC(N)=N[C@]1(C)c1cc(NC(=O)c2cnc(OCF)cn2)ccc1Cl [Compound I-19] | – | 7.33 | 8.92 | ≤ 4.70 | –
14 | CO[C@H]1[C@@H](CF)OC(N)=N[C@]1(C)c1cc(NC(=O)c2ccc(C#N)cn2)ccc1Cl [Compound I-18] | ≤ 4.70 | 7.74 | 9.24 | ≤ 4.70 | –
15 | COc1cnc(C(=O)Nc2ccc(F)c([C@@]3(C)N=C(N)O[C@H]([C@H](C)F)[C@@H]3F)c2)cn1 [Compound I-17] | – | 7.22 | 8.49 | ≤ 4.70 | 0.73
16 | C[C@@H]1[C@@H](C(F)(F)F)OC(N)=N[C@]1(C)c1cc(NC(=O)c2ccc(C#N)cn2)ccc1F [Compound I-27] | ≤ 4.70 | 7.39 | 8.17 | ≤ 4.70 | –
17 | C[C@H]1SC(N)=N[C@](C)(c2nc(NC(=O)c3cnc(OCF)cn3)ccc2F)[C@H]1F [Compound I-3] | – | 7.21 | 8.44 | ≤ 5.00 | –
18 | C[C@H]1SC(N)=N[C@](C)(c2nc(NC(=O)c3ccc(F)cn3)ccc2F)[C@H]1F [Compound I-2] | – | 7.17 | 8.43 | ≤ 5.00 | –
19 | C[C@]1(c2cc(NC(=O)c3cnc(OCF)cn3)ccc2F)N=C(N)OCC12CC(F)(F)C2 [Compound I-44] | ≤ 5.00 | 7.16 | 8.68 | ≤ 4.70 | 4.6
20 | C[C@H]1[C@@H](C(F)F)OC(N)=N[C@]1(C)c1cc(NC(=O)c2ccc(C#N)cn2)ccc1F [Compound I-31] | ≤ 4.70 | 7.65 | 9.18 | ≤ 4.70 | 2.9
21 | C[C@H]1[C@@H](C(F)F)OC(N)=N[C@]1(C)c1cc(NC(=O)c2cnc(OCF)cn2)ccc1F [Compound I-33] | – | 7.31 | 8.97 | ≤ 4.70 | 3.2
22 | Cc1nc(C(=O)Nc2ccc(F)c([C@@]3(C)N=C(N)O[C@H](C(F)(F)F)[C@@H]3C)c2)co1 [Compound I-32] | ≤ 5.00 | 7.36 | 8.62 | ≤ 4.70 | –
23 | C[C@]1(c2cc(NC(=O)c3cnc(OCF)cn3)ccc2F)N=C(N)O[C@H](CF)[C@@H]1OCC(F)(F)F [Compound I-12] | ≤ 5.00 | 7.25 | 8.73 | ≤ 4.70 | –
24 | C[C@H]1SC(N)=N[C@](C)(c2nc(NC(=O)c3ccc(C#N)cn3)ccc2F)[C@H]1F [Compound I-1] | ≤ 4.70 | 7.88 | 9.30 | ≤ 4.70 | 1.2
25 | C[C@]1(c2cc(NC(=O)c3ccc(C#N)cn3)ccc2F)N=C(N)O[C@H]2[C@@H]1OCC2(F)F [Compound I-35] | ≤ 4.70 | 7.88 | 9.41 | ≤ 4.70 | 2.1
26 | C[C@@]1(c2cc(NC(=O)c3ccc(C#N)cn3)ccc2F)C[C@@](C)(C(F)(F)F)OC(N)=N1 [Compound I-7] | – | 7.32 | 8.60 | – | –
27 | C[C@H](F)[C@H]1OC(N)=N[C@](C)(c2cc(NC(=O)c3ccc(C#N)cn3)ccc2F)[C@H]1F [Compound I-13] | ≤ 4.70 | 7.49 | 8.95 | ≤ 4.70 | 2.4
